Kd data for 26 compounds are collected here from patent publication US20060014812A1, “Use of estrogen related receptor-modulating aryl ethers” (priority 2004, published 2006).

Some results are limits rather than exact numbers.

In the test the target is T1, ligand binding domain of ERR-α (aa 183-424) (Homo sapiens, UniProt P11474).
T1 construct: His tag (N); thrombin cleavage site (N); made in house; host or cells: E. coli BL21(DE3+)
T1 sequence (P11474 183-423 limits assumed): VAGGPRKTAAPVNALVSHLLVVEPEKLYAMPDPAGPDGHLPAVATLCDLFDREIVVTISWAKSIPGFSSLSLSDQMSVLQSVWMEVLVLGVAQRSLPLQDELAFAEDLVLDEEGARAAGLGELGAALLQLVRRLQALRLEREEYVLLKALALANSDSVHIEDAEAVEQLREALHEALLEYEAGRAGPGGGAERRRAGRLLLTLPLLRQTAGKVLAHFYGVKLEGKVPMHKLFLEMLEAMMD
Description: ThermoFluor thermal-shift binding affinity screen against ERR-α ligand binding domain. As to conditions: 100 μM test compound, 0.1 mg/mL ERR-α, pH 7.6, Kd estimated from melting temperature shift at reference temperature, read-out: TF Kd. The method, then: The ligand binding domain of ERR-α (aa 183-424) was subcloned in frame with the N-terminal His tag and the cleavable thrombin site in pET28. The protein was expressed in BL21(DE3^+) following induction with 100 μM IPTG at 16° C. Cells were harvested after 16 hours (h) of induction and lysed in 20 mM Tris pH 7.5, 500 mM NaCl, 5 mM imidazole, 5% glycerol, protease inhibitor cocktail (-EDTA) and 2 mM β-ME. Insoluble material was removed by centrifugation at 40,000×g for 1 hr. Clarified homogenate was applied on a Ni-NTA column and after applying an imidazole gradient the protein was eluted. The protein was further purified on size exclusion chromatography to an apparent homogeneity of 95% as judged by SDS-PAGE chromatography.
Binding affinities of compounds were determined by screening against the ligand binding domain of ERR-α using ThermoFluor® technology (U.S. Pat. No. 6,020,141 and U.S. Pat. No. 6,036,920, and Journal of Biomolecular Screening 6 (6), […], pgs 429-440). Assay plates were prepared by dispensing 2 μL of a protein-dye solution and 2 μL of the test compound in a 384-well plate. The conditions used in the screen were: 0.1 mg/mL ERR-α, 25 mM Na-phosphate buffer at pH 7.6, 200 mM NaCl, 10% glycerol, 16 μM ANS, 2% DMSO and the final concentration of test compound was 100 μM. Finally 1 μL of mineral oil was dispensed on top to prevent evaporation during the high throughput screen (HTS). ThermoFluor® is an HTS assay that measures protein unfolding based on fluorescence detection of the denatured form of the protein. The reporter for the protein unfolding event is the environmentally sensitive dye ANS that is incorporated in the screening buffer. During a typical experiment the 384-well plate is heated at a ramping rate of 1° C./min and the thermal unfolding of the protein is monitored at 1° C. intervals by measuring fluorescence changes detected through a CCD camera. Captured images are integrated and a melting curve is generated that relates fluorescence to fraction of unfolded protein as a function of temperature. For the ERR-α screen, data were collected from 30 to 80° C. at 1° C. intervals and the protein melted under the screening conditions with a characteristic melting temperature, Tm, of 52.1° C. Hits were identified from the screen by measuring an increase in the melting temperature of the protein.
In order to estimate binding affinities, it was taken into account that the oligomeric state of ERR-α, which is a dimer (N2), and that of a single ligand (Lf) can interact per monomer subunit with equal affinity. The melting curve for such a system is described by the following three equilibria: [formula] The first equilibrium describes the denaturation of ERR-α dimers; the second equilibrium describes the dissociation of the first ligand from the single ligand occupied ERR-α dimers (N2L); and the third equilibrium describes the dissociation of the second ligand from the fully occupied ERR-α dimers (N2L2).
Following the derivations of Brandts and Lin (Biochemistry, 29, 6967, 1990) the dissociation constants for the ligands (Kd1^t^m) can be determined at T=Tm for any ligand concentration Lt by solving numerically the conservation of mass equations: [formula] and Ku is in the unfolding equilibrium constant for ERR-α dimers that is calculated from the melting curve of the protein in the absence of ligand as described by Pantoliano et al. (J. Biomolecular Screening, 6, 429, 2001) and Bowie & Sauer (Biochemistry, 28, 7139, 1989).
To compare dissociation constants at a common reference temperature, Tref, the following equation was used: [formula] where • Kd^ref=is the dissociation constant of the ligand at a reference temperature Tref • ΔHb^ref=is the binding enthalpy of the ligand to the protein at a reference temperature Tref. […]
For the compound `COc1cc(/C=C(/C(=O)c2cccs2)C(=O)C(F)(F)F)ccc1Oc1ccc(C(F)(F)F)cc1[N+](=O)[O-]` [Example 29, 4,4,4-Trifluoro-2-[3-methoxy-4-(2-nitro-4-trifluoromethyl-phenoxy)-benzylidene]-1-thiophen-2-yl-butane-1,3-dione], the Kd was 15.4 µM.

Consider `CCOC(=O)/C(C#N)=C/c1ccc(Oc2ccc(C(F)(F)F)cc2[N+](=O)[O-])c(OC)c1` [Example 24, 2-Cyano-3-[3-methoxy-4-(2-nitro-4-trifluoromethyl-phenoxy)-phenyl]-acrylic acid ethyl ester], for which the Kd is 2.54 µM.

Turning to `COc1ccc(Oc2ccc(/C=C3\SC(=O)NC3=O)cc2)cc1` [Example 16, 5-[4-(4-Methoxy-phenoxy)-benzylidene]-thiazolidine-2,4-dione], the equilibrium dissociation constant (Kd) is 3.53 µM.

With `O=C1NC(=O)/C(=C/c2ccc(Oc3ccc(C(F)(F)F)cc3[N+](=O)[O-])cc2)S1` [Example 14, 5-[4-(2-Nitro-4-trifluoromethyl-phenoxy)-benzylidene]-thiazolidine-2,4-dione], the Kd was 0.588 µM.

Turning to `COc1cc(/C=C2\SC(=O)NC2=O)ccc1OCc1cccc(F)c1` [Example 38, 5-[4-(3-Fluoro-benzyloxy)-3-methoxy-benzylidene]-thiazolidine-2,4-dione], the Kd is 3.18 µM.

In the case of `COc1cc(/C=C2\C(=O)N(c3ccccc3)N=C2C)ccc1Oc1ccc(C(F)(F)F)cc1[N+](=O)[O-]` [Example 30, 4-[3-Methoxy-4-(2-nitro-4-trifluoromethyl-phenoxy)-benzylidene]-5-methyl-2-phenyl-2,4-dihydro-pyrazol-3-one], the Kd was 1.16 µM.

As to `COc1cc(/C=C2\C(=O)ON=C2c2ccccc2)ccc1Oc1ccc(C(F)(F)F)cc1[N+](=O)[O-]` [Example 32, 4-[3-4-(2-nitro-4-trifluoromethyl-phenoxy)-benzylidene]-3-phenyl-4H-isoxazol-5-one], the Kd is 0.795 µM.

As to `CCOC(=O)CN1C(=O)S/C(=C\c2ccc(Oc3ccc(C(F)(F)F)cc3[N+](=O)[O-])c(OC)c2)C1=O` [Example 17, {5-[3-Methoxy-4-(2-nitro-4-trifluoromethyl-phenoxy)-benzylidene]-2,4-dioxo-thiazolidin-3-yl}-acetic acid ethyl ester], the Kd is 4.86 µM.

`CCCCN1C(=O)S/C(=C\c2ccc(Oc3ccc(C(F)(F)F)cc3[N+](=O)[O-])c(OC)c2)C1=O` [Example 19, 3-Butyl-5-[3-methoxy-4-(2-nitro-4-trifluoromethyl-phenoxy)-benzylidene]-thiazolidine-2,4-dione]: the Kd is 2.7 µM.

Turning to `COC(=O)c1ccc(Oc2ccc(/C=C3\SC(=O)NC3=O)cc2OC)c([N+](=O)[O-])c1` [Example 18, 4-[4-(2,4-Dioxo-thiazolidin-5-ylidenemethyl)-2-methoxy-phenoxy]-3-nitro-benzoic acid methyl ester], the Kd was 0.0692 µM.

With `COc1cc(/C=C2\SC(=O)NC2=O)ccc1OCc1ccc(F)cc1Cl` [Example 37, 5-[4-(2—Chloro-4-fluoro-benzyloxy)-3-methoxy-benzylidene]-thiazolidine-2,4-dione], the Kd was 0.414 µM.

Consider `O=C1NC(=O)/C(=C\c2cccc(Oc3cccc(Cl)c3)c2)S1` [Example 21, 5-[3-(3-Chloro-phenoxy)-benzylidene]-thiazolidine-2,4-dione], for which the Kd was more than 200 µM.

Consider `COc1cc(/C=C(\C#N)C(=O)c2ccccc2)ccc1Oc1ccc(C(F)(F)F)cc1[N+](=O)[O-]` [Example 28, 2-Benzoyl-3-[3-methoxy-4-(2-nitro-4-trifluoromethyl-phenoxy)-phenyl]-acrylonitrile], for which the Kd was 0.608 µM.

As for `COc1cc(/C=C(\C#N)c2cccs2)ccc1Oc1ccc(C(F)(F)F)cc1[N+](=O)[O-]` [Example 25, 3-[3-Methoxy4-(2-nitro4-trifluoromethyl-phenoxy)-phenyl]-2-thiophen-2-yl-acrylonitrile], the Kd is 7.17 µM.

As to `COC(=O)c1ccc(Oc2ccc(C=C3C(=O)c4ccccc4C3=O)cc2OC)c([N+](=O)[O-])c1` [Example 35, 4-[4-(1,3-Dioxo-indan-2-ylidenemethyl)-2-methoxy-phenoxy]-3-nitro-benzoic acid methyl ester], the Kd is 0.52 µM.

Turning to `CCN1C(=O)/C(=C\c2ccc(Oc3ccc(C(F)(F)F)cc3[N+](=O)[O-])c(OC)c2)SC1=S` [Example 36, 3-Ethyl-5-[3-methoxy-4-(2-nitro-4-trifluoromethyl-phenoxy)-benzylidene]-2-thioxo-thiazolidin-4-one], the dissociation constant Kd is 20.3 µM.

As to `COc1cc(C=C2C(=O)c3ccccc3C2=O)ccc1Oc1ccc(C(F)(F)F)cc1[N+](=O)[O-]` [Example 33, 2-[3-4-(2-nitro-4-trifluoromethyl-phenoxy)-benzylidene]-indan-1,3-dione], the Kd is 0.473 µM.

For the compound `COc1cc(C=C(C#N)C#N)ccc1Oc1ccc(C(F)(F)F)cc1[N+](=O)[O-]` [Example 22, 2-[3-Methoxy-4-(2-nitro-4-trifluoromethyl-phenoxy)-benzylidene]-malononitrile], the Kd was 5.06 µM.

Regarding `O=C1NC(=O)/C(=C/c2ccc(Oc3ccccc3)cc2)S1` [Example 20, 5-(4-Phenoxy-benzylidene)-thiazolidine-2,4-dione], the Kd is 9.5 µM.

Turning to `COc1cc(/C=C(\C#N)c2nc3ccccc3[nH]2)ccc1Oc1ccc(C(F)(F)F)cc1[N+](=O)[O-]` [Example 26, 2-(1H-Benzoimidazol-2-yl)-3-[3-methoxy-4-(2-nitro-4-trifluoromethyl-phenoxy)-phenyl]-acrylonitrile], the dissociation constant Kd is 15.2 µM.

`COc1cc(/C=C2\SC(=O)NC2=O)cc(Cl)c1Oc1ccc(C(F)(F)F)cc1[N+](=O)[O-]` [Example 13, 5-[3-Chloro-5-methoxy-4-(2-nitro-4-trifluoromethyl-phenoxy)-benzylidene]-thiazolidine-2,4-dione]: the Kd is 79.5 µM.

`COc1ccc(Oc2ccc(C=C3SC(N)=NC3=O)cc2)cc1` [Example 9, 2-Amino-5-[4-(4-methoxy-phenoxy)-benzylidene]-thiazol-4-one]: the Kd was 24.7 µM.

Turning to `COc1cc(/C=C2\SC(=O)NC2=O)ccc1Oc1ccc(C(F)(F)F)cc1[N+](=O)[O-]` [Example 10, 5-[3-Methoxy-4-(2-nitro-4-trifluoromethyl-phenoxy)-benzylidene]-thiazolidine-2,4-dione], the Kd is 0.234 µM.

With `COc1cc(/C=C(\C#N)c2ccccn2)ccc1Oc1ccc(C(F)(F)F)cc1[N+](=O)[O-]` [Example 27, 3-[3-Methoxy-4-(2-nitro-4-trifluoromethyl-phenoxy)-phenyl]-2-pyridin-2-yl-acrylonitrile], the dissociation constant Kd is 1.38 µM.

Turning to `COc1cc(C=C2C(=O)c3ccccc3C2=O)ccc1OCc1cccc(F)c1` [Example 40, 2-[4-(3-Fluoro-benzyloxy)-3-methoxy-benzylidene]-indan-1,3-dione], the dissociation constant (Kd) is 17.7 µM.

Consider `COc1cc(/C=C2/NC(=S)NC2=O)ccc1Oc1ccc(C(F)(F)F)cc1[N+](=O)[O-]` [Example 31, 5-[3-4-(2-nitro-4-trifluoromethyl-phenoxy)-benzylidene]-2-thioxo-imidazolidin-4 4-one], for which the Kd is 2.2 µM.
